One assay deals with PAF-induced hypotension. Put plainly: Inhibition of PAF-induced hypotension. The assay is classed as in vivo, Wistar-Imamichi rats. The settings on record: Rattus norvegicus, iv, 1 min; anesthetized rats; l-C16:0 PAF 10 ng/kg i.v.; test compound i.v. cumulatively, 1 min before PAF; read-out: Inhibitory effect ID50. Here is the method: Inhibition of PAF-induced hypotension
The test animals used were Wistar-Imamichi rats, each weighing from 350 to 450 g, anesthetized with Inactin (90 mg/kd, intraperitoneally).
Blood pressure was continuously measured throughout the experiment through a cannula inserted into the femoral artery. Each drug sample to be tested was intravenously injected through a cannula inserted into the femoral vein.
At first, l-C16:0 PAF was injected intravenously in amounts of 10 ng/kg at each injection at intervals of 5 minutes until the degree of the hypotensive response became constant. Then, each drug sample to be treated was intravenously injected. After one minute, the same dose of PAF was administered again. The drug sample was cumulatively administered. From its inhibition rate against the PAF-induced hypotensive effect, the 50% inhibitive dose (ID50) was determined, and is regarded as an index of PAF-antagonist activity. For administration, the PAF was dissolved in physiological saline solution containing 0.25% w/v of bovine serum albumin (BSA). The compounds under test were dissolved in dimethylformamide for use.
CV-3988 is disclosed in U.S. Pat. No. 4,408,052, and is structurally related to PAF itself.
In this Table, the compounds of the invention are identified by the number of the foregoing Example in which they were prepared.

For assay [1], the system named is blood platelet (PAF-induced aggregation). Put plainly: Inhibitory effect in vitro against PAF-induced blood platelet aggregation. The settings on record: Oryctolagus cuniculus, 5 min; rabbit platelet rich plasma; l-C16:0 PAF final 10^-8 ~3×10^-8 M; 5 min observation. It is filed as cell-based. Here is the method:
Inhibitory effect in vitro against PAF-induced blood platelet aggregation
Blood samples were drawn from a rabbit and one part by volume of each sample was immediately mixed with 1/9 part of a 3.8% w/v aqueous solution of sodium citrate. The samples were centrifuged at 150×G at room temperature for 15 minutes to obtain a platelet rich plasma (PRP) fraction from the upper layer. The remains were further centrifuged at 1,000×G for 15 minutes to obtain a platelet poor plasma (PPP) fraction from the upper layer. The PRP and PPP fractions were mixed appropriately, to obtain a sample in which the final count of blood platelets was adjusted to be 6×10^5 per ul. According to the method reported by Born et al. [G. V. R. Born et al.: J. Physiol. 62, 67-68 (1962)], blood platelet aggregation was determined by an increase in light transmission measured using an aggregometer. 3 ul of a solution of the test compound in dimethyl sulfoxide were added to 272 ul of PRP, and, after 1 minute, 25 ul of a physiological saline solution containing l-c16:0 PAF (at a final concentration of 10^-8 ~3×10^-8 M) were added. […] At the end of this value and the value of PAF-induced aggregation which was observed when dimethyl sulfoxide only was used without the addition of any test compound. IC50 values were calculated from the dose-response curve.

Consider `COc1cc(C(=O)N2CCN(C(=O)/C=C(\c3ccccc3)c3ccc4ccccc4c3)CC2)cc(OC)c1OC` [Example 48, 1-[(E)-3-(2-Naphthyl)-3-phenylacryloyl]-4-(3,4,5-trimethoxybenzoyl)piperazine], for which, in the assay on PAF-induced hypotension, the ED50 was found to be 0.012 mg/kg.
The term IC50 denotes the midpoint of a concentration-inhibition curve. Read a high IC50 as lower potency. As to `COc1ccc(/C(=C/C(=O)N2CCN(C(=O)c3cc(OC)c(OC)c(OC)c3)CC2)c2cccc(Cl)c2)cc1OC` [Example 17, 1-[(Z)-3-(3-Chlorophenyl)-3-(3,4-dimethoxyphenyl)acryloyl]-4-(3,4,5-trimethoxybenzoyl)piperazine], the ED50 with PAF-induced hypotension came out at 0.0083 mg/kg. In assay [1], 63 nM corresponded to half-maximal inhibition (IC50).
`CCCOc1ccc(/C(=C/C(=O)N2CCN(C(=O)c3cc(OC)c(OC)c(OC)c3)CC2)c2ccccc2)cc1` [Example 53, 1-[(E)-3-Phenyl-3-(4-propoxyphenyl)acryloyl]-4-(3,4,5-trimethoxybenzoyl)piperazine]: in the assay on PAF-induced hypotension, the ED50 turned out to be 0.0074 mg/kg. Moreover, inhibition in assay [1] was half-maximal at 52 nM (IC50).
For `COc1ccc(/C(=C/C(=O)N2CCN(C(=O)c3cc(OC)c(OC)c(OC)c3)CC2)c2cc(Cl)ccc2Cl)cc1` [Example 80, 1-[(Z)-3-(4-Methoxyphenyl)-3-(2,5-dichlorophenyl)acryloyl]-4-(3,4,5-trimethoxybenzoyl)piperazine], the ED50 with PAF-induced hypotension was found to be 0.0065 mg/kg. Further, in assay [1], the IC50 is 28 nM.
Turning to `CCOc1ccc(/C(=C/C(=O)N2CCN(C(=O)c3cc(OC)c(OC)c(OC)c3)CC2)c2cccc(F)c2)cc1` [Example 88, 1-[(Z)-3-(4-Ethoxyphenyl)-3-(3-fluorophenyl)acryloyl]-4-(3,4,5-trimethoxybenzoyl)piperazine], the ED50 in the assay with PAF-induced hypotension worked out at 0.092 mg/kg.
Turning to `COc1ccc(/C(=C/C(=O)N2CCN(C(=O)c3cc(OC)c(OC)c(OC)c3)CC2)c2cccc(Br)c2)cc1` [Example 73, 1-[(Z)-3-(4-Methoxyphenyl)-3-(3-bromophenyl)acryloyl]-4-(3,4,5-trimethoxybenzoyl)piperazine], the ED50 in the assay on PAF-induced hypotension was determined as 0.0084 mg/kg. The IC50 in assay [1] stood at 86 nM.
Taken in the same sequence, the figures for `COc1ccc(/C(=C/C(=O)N2CCN(C(=O)c3cc(OC)c(OC)c(OC)c3)CC2)c2ccc(OC)c(OC)c2)cc1` [Example 30, 1-[(Z)-3-(3,4-Dimethoxyphenyl)-3-(4-methoxyphenyl)acryloyl]-4-(3,4,5-trimethoxybenzoyl)piperazine] were 0.044 mg/kg and 150 nM.
`COc1cc(C(=O)N2CCN(C(=O)C=C(c3ccc(Cl)cc3)c3ccc(Cl)cc3)CC2)cc(OC)c1OC` [Example 3, 1-[3,3-Bis(4-chlorophenyl)acryloyl]-4-(3,4,5-trimethoxybenzoyl)piperazine]: in the assay with PAF-induced hypotension, the ED50 is 0.048 mg/kg. The molecule further registered an IC50 in assay [1] of 220 nM.
For `CCc1ccc(/C(=C/C(=O)N2CCN(C(=O)c3cc(OC)c(OC)c(OC)c3)CC2)c2ccc(Cl)c(Cl)c2)cc1` [Example 52, 1-[(Z)-3-(3,4-Dichlorphenyl)-3-(4-ethylphenyl)acryloyl]-4-(3,4,5-trimethoxybenzoyl)piperazine], in that order: 0.0084 mg/kg and 30 nM.
As to `COc1cc(C(=O)N2CCN(C(=O)C=C(c3ccc(F)cc3)c3ccc(F)cc3)CC2)cc(OC)c1OC` [Example 25, 1[Bis(4-fluorophenyl)acryloyl]-4-(3,4,5-trimethoxybenzoyl)piperazine], the ED50 with PAF-induced hypotension was found to be 0.052 mg/kg.
In the case of `COc1ccc(/C(=C\C(=O)N2CCN(C(=O)c3cc(OC)c(OC)c(OC)c3)CC2)c2ccc(C)cc2)cc1OC` [Example 36, 1-[(Z)-3-(3,4-Dimethoxyphenyl)-3-(4-methylphenyl)acryloyl]-4-(3,4,5-trimethoxybenzoyl)piperazine], the ED50 with PAF-induced hypotension amounted to 0.039 mg/kg. Further, the IC50 in assay [1] was found to be 220 nM.
Taken in the same sequence, the figures for `CCCOc1ccc(/C(=C/C(=O)N2CCN(C(=O)c3cc(OC)c(OC)c(OC)c3)CC2)c2cccc(Cl)c2)cc1` [Example 71, 1-[(Z)-3-(4-Propoxyphenyl)-3-(3-chlorophenyl)acryloyl]-4-(3,4,5-trimethoxybenzoyl)piperazine] were 0.0074 mg/kg and 38 nM.
`COc1cc(C(=O)N2CCN(C(=O)/C=C(/c3cccc(C)c3)c3ccc(Cl)c(Cl)c3)CC2)cc(OC)c1OC` [Example 37, 1-[(Z)-3-(3,4-Dichlorophenyl)-3-(3-methylphenyl)acryloyl]-4-(3,4,5-trimethoxybenzoyl)piperazine]: inhibition in assay [1] was half-maximal at 110 nM (IC50).
With `COc1ccc(/C(=C\C(=O)N2CCN(C(=O)c3cc(OC)c(OC)c(OC)c3)CC2)c2ccc(Cl)cc2)cc1OC` [Example 16, 1-[(Z)-3-(4-Chlorophenyl)-3-(3,4-dimethoxyphenyl)acryloyl]-4-(3,4,5-trimethoxybenzoyl)piperazine], the ED50 in the assay on PAF-induced hypotension came to 0.074 mg/kg.
On to `COc1ccc(/C(=C\C(=O)N2CCN(C(=O)c3cc(OC)c(OC)c(OC)c3)CC2)c2cccc(C)c2)cc1OC` [Example 40, 1-[(Z)-3-(3,4-Dimethoxyphenyl)-3-(3-methylphenyl)acryloyl]-4-(3,4,5-trimethoxybenzoyl)piperazine], for which the IC50 in assay [1] came out at 110 nM.
For the molecule `COc1ccc(/C(=C/C(=O)N2CCN(C(=O)c3cc(OC)c(OC)c(OC)c3)CC2)c2ccc(Cl)cc2Cl)cc1` [Example 78, 1-[(Z)-3-(4-Methoxyphenyl)-3-(2,4-dichlorophenyl)acryloyl]-4-(3,4,5-trimethoxybenzoyl)piperazine], the ED50 with PAF-induced hypotension was 0.0073 mg/kg. The molecule further had a concentration for half-maximal inhibition (IC50) in assay [1] of 29 nM.
Regarding `COc1cc(C(=O)N2CCN(C(=O)C=C(c3cccs3)c3cccs3)CC2)cc(OC)c1OC` [Example 4, 1-[3,3-Bis(2-thienyl)acryloyl]-4-(3,4,5-trimethoxybenzoyl)piperazine], the ED50 in the assay on PAF-induced hypotension is 0.074 mg/kg.
The same measure, in the same setting: then `COc1ccc(/C(=C\C(=O)N2CCN(C(=O)c3cc(OC)c(OC)c(OC)c3)CC2)c2cccc(Cl)c2)cc1OC` [Example 18, 1-[(E)-3-(3-Chlorophenyl)-3-(3,4-dimethoxyphenyl)acryloyl]-4-(3,4,5-trimethoxybenzoyl)piperazine], with 0.026 mg/kg; and `COc1ccc(/C(=C\C(=O)N2CCN(C(=O)c3cc(OC)c(OC)c(OC)c3)CC2)c2cccc(C(F)(F)F)c2)cc1OC` [Example 34, 1-[(Z)-3-(3,4-Dimethoxyphenyl)-3-(3-trifluoromethylphenyl)acryloyl]-4-(3,4,5-trimethoxybenzoyl)piperazine], with 0.021 mg/kg.
The same measure, in the same setting: then `COc1ccc(/C(=C/C(=O)N2CCN(C(=O)c3cc(OC)c(OC)c(OC)c3)CC2)c2c(Cl)cccc2Cl)cc1` [Example 79, 1-[(Z)-3-(4-Methoxyphenyl)-3-(2,6-dichlorophenyl)acryloyl]-4-(3,4,5-trimethoxybenzoyl)piperazine], with 0.0066 mg/kg; and `COc1ccc(/C(=C/C(=O)N2CCN(C(=O)c3cc(OC)c(OC)c(OC)c3)CC2)c2cccc(C)c2)cc1OC` [Example 39, 1-[(E)-3-(3,4-Dimethoxyphenyl)-3-(3-methylphenyl)acryloyl]-4-(3,4,5-trimethoxybenzoyl)piperazine], with 0.008 mg/kg.
Same read-out and setting: then `COc1ccc(/C(=C\C(=O)N2CCN(C(=O)c3cc(OC)c(OC)c(OC)c3)CC2)c2ccccc2)cc1OC` [Example 8, 1-[(Z)-3-(3,4-Dimethoxyphenyl)cinnamoyl]-4-(3,4,5-trimethoxybenzoyl)piperazine], with 0.058 mg/kg; and `CCc1ccc(/C(=C/C(=O)N2CCN(C(=O)c3cc(OC)c(OC)c(OC)c3)CC2)c2cc(Cl)cc(Cl)c2)cc1` [Example 86, 1-[(Z)-3-(4-Ethylphenyl)-3-(3,5-dichlorophenyl)acryloyl]-4-(3,4,5-trimethoxybenzoyl)piperazine], with 0.015 mg/kg.

Source of the values: patent publication US5192766A, “N-acryloylpiperazine derivatives, their preparation and their use as PAF antagonists” (Sankyo Company, Limited, priority 1989, dated 1993).
